Data as given in patent US12172995B2, “Substituted indole and indazole compounds” (BRISTOL-MYERS SQUIBB COMPANY, priority 2018, dated 2024).
pIC50: −log10 of the molar value.

What was measured:
Assay type in all cases: cell-based
[1] = target: T1, human TLR7 (Homo sapiens, UniProt Q9NYK1); experiment: TLR7 inhibition reporter assay (HEK-Blue SEAP); conditions: HEK-Blue cells overexpressing human TLR7, stimulated with gardiquimod 7.5 μM, 22 hour incubation
T1 construct: host or cells: HEK-Blue cells
T1 sequence (Q9NYK1 27-1049): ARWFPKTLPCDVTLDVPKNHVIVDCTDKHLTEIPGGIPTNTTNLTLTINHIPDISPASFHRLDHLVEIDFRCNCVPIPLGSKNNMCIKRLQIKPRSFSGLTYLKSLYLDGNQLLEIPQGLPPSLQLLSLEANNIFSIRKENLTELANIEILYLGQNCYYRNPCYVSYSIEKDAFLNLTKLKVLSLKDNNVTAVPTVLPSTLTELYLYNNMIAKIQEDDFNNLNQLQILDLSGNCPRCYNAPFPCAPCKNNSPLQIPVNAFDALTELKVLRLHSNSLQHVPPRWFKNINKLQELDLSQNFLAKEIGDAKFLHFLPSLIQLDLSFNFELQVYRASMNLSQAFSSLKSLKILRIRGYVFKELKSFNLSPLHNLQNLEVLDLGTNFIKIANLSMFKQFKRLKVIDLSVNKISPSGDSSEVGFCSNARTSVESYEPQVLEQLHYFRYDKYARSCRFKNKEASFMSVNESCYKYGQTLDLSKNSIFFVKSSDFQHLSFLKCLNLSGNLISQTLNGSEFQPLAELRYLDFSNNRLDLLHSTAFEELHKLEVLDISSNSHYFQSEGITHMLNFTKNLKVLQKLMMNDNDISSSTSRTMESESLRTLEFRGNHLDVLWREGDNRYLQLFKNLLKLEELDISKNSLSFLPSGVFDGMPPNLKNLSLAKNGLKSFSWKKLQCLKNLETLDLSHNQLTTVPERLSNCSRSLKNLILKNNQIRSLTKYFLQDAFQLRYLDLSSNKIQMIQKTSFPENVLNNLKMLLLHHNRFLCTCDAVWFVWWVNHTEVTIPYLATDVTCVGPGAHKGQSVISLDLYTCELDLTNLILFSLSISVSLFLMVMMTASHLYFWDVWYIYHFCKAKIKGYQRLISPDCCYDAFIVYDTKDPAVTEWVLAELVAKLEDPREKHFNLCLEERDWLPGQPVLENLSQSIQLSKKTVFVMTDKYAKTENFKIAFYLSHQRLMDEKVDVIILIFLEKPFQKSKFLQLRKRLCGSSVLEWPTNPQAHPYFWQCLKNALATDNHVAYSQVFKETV
Summary of the method: (§1)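 Percent inhibition reflects SEAP reduction after 22 h at 37° C, relative to agonist-plus-DMSO and known-inhibitor controls. Compounds (0.05 nM to 50 μM) were added 30 min before agonist: TLR9 cells received ODN2006 5 nM, TLR8 cells R848 15.9 μM, TLR7 cells gardiquimod 7.5 μM; human receptor-expressing HEK-Blue reporter lines.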

[2] = target: T2, human TLR8 (Homo sapiens, UniProt Q9NR97); experiment: TLR8 inhibition reporter assay (HEK-Blue SEAP); conditions: HEK-Blue cells overexpressing human TLR8, stimulated with R848 15.9 μM, 22 hour incubation
T2 construct: host or cells: HEK-Blue cells
T2 sequence (Q9NR97 27-1041): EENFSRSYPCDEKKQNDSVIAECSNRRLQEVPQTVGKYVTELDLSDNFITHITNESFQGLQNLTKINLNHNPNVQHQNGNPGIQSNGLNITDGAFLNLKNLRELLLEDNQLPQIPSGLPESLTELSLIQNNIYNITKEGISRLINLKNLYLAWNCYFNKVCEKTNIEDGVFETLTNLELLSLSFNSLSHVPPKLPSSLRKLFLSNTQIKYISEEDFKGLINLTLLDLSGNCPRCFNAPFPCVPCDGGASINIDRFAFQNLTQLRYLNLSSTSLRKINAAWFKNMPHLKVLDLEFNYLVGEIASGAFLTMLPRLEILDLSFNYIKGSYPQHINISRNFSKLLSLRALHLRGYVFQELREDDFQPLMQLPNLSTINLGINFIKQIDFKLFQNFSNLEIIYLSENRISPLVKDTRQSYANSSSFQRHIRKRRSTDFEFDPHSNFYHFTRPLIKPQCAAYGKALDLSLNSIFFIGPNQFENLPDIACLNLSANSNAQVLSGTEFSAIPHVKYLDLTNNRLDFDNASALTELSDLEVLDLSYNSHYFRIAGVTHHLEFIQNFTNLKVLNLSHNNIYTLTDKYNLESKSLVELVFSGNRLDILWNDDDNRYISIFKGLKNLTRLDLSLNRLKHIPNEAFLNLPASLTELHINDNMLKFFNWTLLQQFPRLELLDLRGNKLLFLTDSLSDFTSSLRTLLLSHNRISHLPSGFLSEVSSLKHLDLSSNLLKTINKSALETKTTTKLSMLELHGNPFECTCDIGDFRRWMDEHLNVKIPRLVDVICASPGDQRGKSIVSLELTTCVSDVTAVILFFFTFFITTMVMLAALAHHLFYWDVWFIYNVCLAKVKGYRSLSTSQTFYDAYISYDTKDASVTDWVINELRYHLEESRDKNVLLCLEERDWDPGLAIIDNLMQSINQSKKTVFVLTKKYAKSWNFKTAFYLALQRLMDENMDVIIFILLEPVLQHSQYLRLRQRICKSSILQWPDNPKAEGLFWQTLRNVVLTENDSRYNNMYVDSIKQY
Summary of the method: as §1

[3] = target: T3, human TLR9 (Homo sapiens, UniProt Q9NR96); experiment: TLR9 inhibition reporter assay (HEK-Blue SEAP); conditions: HEK-Blue cells overexpressing human TLR9, stimulated with ODN2006 5 nM, 22 hour incubation
T3 construct: host or cells: HEK-Blue cells
T3 sequence (Q9NR96 26-1032): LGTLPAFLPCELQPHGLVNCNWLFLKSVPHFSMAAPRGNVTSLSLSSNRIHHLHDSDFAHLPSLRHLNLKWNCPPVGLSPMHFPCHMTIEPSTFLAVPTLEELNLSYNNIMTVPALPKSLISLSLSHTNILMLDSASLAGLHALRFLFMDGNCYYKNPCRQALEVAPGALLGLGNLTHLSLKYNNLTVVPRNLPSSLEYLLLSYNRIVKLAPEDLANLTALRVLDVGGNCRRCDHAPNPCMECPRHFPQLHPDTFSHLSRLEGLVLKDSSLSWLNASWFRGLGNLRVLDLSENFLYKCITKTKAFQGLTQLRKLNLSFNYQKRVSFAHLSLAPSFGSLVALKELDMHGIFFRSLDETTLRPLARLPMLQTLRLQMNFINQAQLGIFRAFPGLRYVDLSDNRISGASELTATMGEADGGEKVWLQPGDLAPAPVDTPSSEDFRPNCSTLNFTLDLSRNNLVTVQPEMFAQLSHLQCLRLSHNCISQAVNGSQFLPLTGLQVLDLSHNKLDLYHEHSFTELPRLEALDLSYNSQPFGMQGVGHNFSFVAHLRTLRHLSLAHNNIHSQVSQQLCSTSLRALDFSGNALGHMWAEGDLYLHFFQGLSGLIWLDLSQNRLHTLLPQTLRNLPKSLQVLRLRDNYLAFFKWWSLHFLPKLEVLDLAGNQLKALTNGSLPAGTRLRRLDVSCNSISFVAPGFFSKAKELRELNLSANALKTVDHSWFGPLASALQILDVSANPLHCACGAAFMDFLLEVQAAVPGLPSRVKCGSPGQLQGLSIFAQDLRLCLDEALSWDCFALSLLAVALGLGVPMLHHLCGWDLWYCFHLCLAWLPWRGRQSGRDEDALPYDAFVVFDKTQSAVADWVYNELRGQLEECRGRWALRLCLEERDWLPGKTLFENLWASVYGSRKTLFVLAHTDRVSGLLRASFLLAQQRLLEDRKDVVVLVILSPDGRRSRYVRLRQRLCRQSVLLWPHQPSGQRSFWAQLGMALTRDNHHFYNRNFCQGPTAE
Summary of the method: as §1

pIC50 [1]	pIC50 [2]	pIC50 [3]	Compound
8.74	8.85	6.36	Cc1cc(-c2cc(C)c3ncnn3c2)cc2[nH]nc(OC3CCNCC3)c12 [Example 174, 8-methyl-6-(4-methyl-3-(piperidin-4-yloxy)-1H-indazol-6-yl)-[1,2,4]triazolo[1,5-a]pyridine]
8.29	7.97	5.79	Cc1cc(-c2cc(C)c3ncnn3c2)cc2[nH]nc(OC3CCN(C(=O)CN(C)C)CC3)c12 [Example 175, 2-(dimethylamino)-1-(4-((4-methyl-6-(8-methyl-[1,2,4]triazolo[1,5-a]pyridin-6-yl)-1H-indazol-3-yl)oxy)piperidin-1-yl)ethan-1-one]
7.90	8.42	5.31	Cc1cc(-c2cc(C)c3ncnn3c2)cc2[nH]nc(OC3CCN(CC(=O)N(C)C)CC3)c12 [Example 176, N,N-dimethyl-2-(4-((4-methyl-6-(8-methyl-[1,2,4]triazolo[1,5-a]pyridin-6-yl)-1H-indazol-3-yl)oxy)piperidin-1-yl)acetamide]
8.57	9.30	6.03	Cc1cc(-c2cc(C)c3ncnn3c2)cc2[nH]nc(OC3CCN(C)CC3)c12 [Example 177, 8-methyl-6-(4-methyl-3-((1-methylpiperidin-4-yl)oxy)-1H-indazol-6-yl)-[1,2,4]triazolo[1,5-a]pyridine]
8.21	9.30	5.79	Cc1cc(-c2cc(C)c3ncnn3c2)cc2[nH]nc(OC3CCN(C4CCOCC4)CC3)c12 [Example 178, 8-methyl-6-(4-methyl-3-((1-(tetrahydro-2H-pyran-4-yl)piperidin-4-yl)oxy)-1H-indazol-6-yl)-[1,2,4]triazolo[1,5-a]pyridine]
7.95	8.31	5.74	Cc1cc(-c2cc(C)c3ncnn3c2)cc2[nH]nc(OC3CCC(NCCS(C)(=O)=O)CC3)c12 (stereo not drawn) [Example 187, 4-((4-methyl-6-(8-methyl-[1,2,4]triazolo[1,5-a]pyridin-6-yl)-1H-indazol-3-yl)oxy)-N-(2-(methylsulfonyl)ethyl)cyclohexan-1-amine]
8.40	8.64	5.36	Cc1cc(-c2cc(C)c3ncnn3c2)cc2[nH]nc(OC3CCC(NCCS(C)(=O)=O)CC3)c12 (stereo not drawn) [Example 188, 4-((4-methyl-6-(8-methyl-[1,2,4]triazolo[1,5-a]pyridin-6-yl)-1H-indazol-3-yl)oxy)-N-(2-(methylsulfonyl)ethyl)cyclohexan-1-amine]
7.88	8.80	5.43	Cc1cc(-c2cc(C)c3ncnn3c2)cc2[nH]nc(OC3CCN(Cc4cn(C)nn4)CC3)c12 [Example 193, 8-methyl-6-(4-methyl-3-((1-((1-methyl-1H-1,2,3-triazol-4-yl)methyl)piperidin-4-yl)oxy)-1H-indazol-6-yl)-[1,2,4]triazolo[1,5-a]pyridine]
8.14	8.72	5.78	Cc1cc(-c2cc(C)c3ncnn3c2)cc2[nH]nc(OC3CCN(CC#N)CC3)c12 [Example 194, 2-(4-((4-methyl-6-(8-methyl-[1,2,4]triazolo[1,5-a]pyridin-6-yl)-1H-indazol-3-yl)oxy)piperidin-1-yl)acetonitrile]
8.43	9.10	5.21	CCc1cc(-c2cc(C)c3ncnn3c2)cc2[nH]nc(OC3CCNCC3)c12 [Example 195, 6-(4-ethyl-3-(piperidin-4-yloxy)-1H-indazol-6-yl)-8-methyl-[1,2,4]triazolo[1,5-a]pyridine]
8.31	9.00	5.24	CCc1cc(-c2cc(C)c3ncnn3c2)cc2[nH]nc(OC3CCN(CC(=O)N(C)C)CC3)c12 [Example 196, 2-(4-((4-ethyl-6-(8-methyl-[1,2,4]triazolo[1,5-a]pyridin-6-yl)-1H-indazol-3-yl)oxy)piperidin-1-yl)-N,N-dimethylacetamide]
6.50	5.63	4.55	COc1cc(-c2ccc3c(C(=O)NC4CCNCC4)c[nH]c3c2)cn2ncnc12 [Example 197, 6-(8-methoxy-[1,2,4]triazolo[1,5-a]pyridin-6-yl)-N-(piperidin-4-yl)-1H-indole-3-carboxamide]
6.31	6.23	5.04	Cc1cc(-c2ccc3c(C(=O)NC4CCNCC4)c[nH]c3c2)cn2ncnc12 [Example 198, 6-(8-methyl-[1,2,4]triazolo[1,5-a]pyridin-6-yl)-N-(piperidin-4-yl)-1H-indole-3-carboxamide]
6.64	6.66	5.36	Cc1cc(-c2ccc3c(C(=O)NC4CCNCC4)n[nH]c3c2)cn2ncnc12 [Example 199, 6-(8-methyl-[1,2,4]triazolo[1,5-a]pyridin-6-yl)-N-(piperidin-4-yl)-1H-indazole-3-carboxamide]
